# Measurements as given in patent US20130324535A1, “USE OF SIGMA LIGANDS IN BONE CANCER PAIN” (LABORATORIOS DEL DR. ESTEVE, S.A., priority 2010, published 2013).
# Where a name gives a salt, the structure may show the parent alone. Read-outs that look alike come from different tables or passages of the source.
# Legend:
# [1] = system: tumor-induced bone pain (tactile allodynia)
# Experimental: This study was conducted in two parts; the first phase determined the optimal dose level for the second phase.
# sigma receptor = conditions: Sigma 1 and Sigma 2; cited from earlier work
smiles,measurement,setting,value
"Cc1cc(OCCN2CCOCC2)nn1-c1ccc2ccccc2c1 [example 1, 4-{2-[5-Methyl-1-(naphthalen-2-yl)-1H-pyrazol-3-yloxy]ethyl}morpholine hydrochloride]",mitigation of allodynia (von Frey test),"[1]; Phase 2, example 1 alone 40 mg/kg, 30 minutes after administration",not at 40 mg/kg
same,mitigation of allodynia (von Frey test),"[1]; Phase 2, example 1 alone 80 mg/kg, 30 minutes after administration",statistically significant mitigation of allodynia
CN1CC[C@]23c4c5ccc(O)c4O[C@H]2[C@@H](O)C=C[C@H]3[C@H]1C5 [morphine],mitigation of allodynia (von Frey test),"[1]; Phase 1, morphine 1.25 mg/kg given at day 18",sub threshold dose
same,mitigation of allodynia (von Frey test),"[1]; Phase 1, morphine 2.5 mg/kg given at day 18",able to mitigate allodynia with statistical significance
same,mitigation of allodynia (von Frey test),"[1]; Phase 1, morphine 5 mg/kg given at day 18",able to mitigate allodynia with statistical significance
same,effect on allodynia 24 hours after administration,"[1]; Phase 2, morphine 5 mg/kg (positive control), 24 hours after administration",no significant effect
CC(C)=CCN1CCC2(C)c3cc(O)ccc3CC1C2C (stereo not shown) [pentazocine],affinity of the sigma receptors,sigma receptor,very high affinity
